Experimental findings from patent US20250100996A1, “HETEROCYCLOALKYL AND HETEROARYL COMPOUNDS AND PHARMACEUTICAL COMPOSITIONS THAT MODULATE IKZF2” (Plexium, Inc., priority 2021, published 2025) are described below.

Each structure is given as a SMILES string. Some results are limits rather than exact numbers.

A word on the EC50: it is the concentration that produces a half-maximal response. In general, DC50 refers to the concentration at which degradation of the target reaches its halfway point. The low end stands for a more potent degrader, the high end for a less potent degrader. For orientation: inhibition means how much of the control response was suppressed. Low values mean little suppression, high ones strong suppression.

Assay [1] addresses T1, human E3 ligase component cereblon (CRBN) (Homo sapiens, UniProt Q96SW2).
T1 construct: host or cells: HEK293T
The assay can be described thus: Cereblon (CRBN) target engagement, NanoBRET TE Intracellular E3 Ligase Assay in transfected HEK-293T cells. The settings on record: read-out: CRBN Binding EC50. Summed up:
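Tracer displacement was read as the 610/450 nm BRET signal after 2 h at 37° C with an 11-point dilution series, typically 10 μM to 100 pM. Live HEK-293T cells expressed NanoLuc fused N-terminal to human CRBN together with DDB1. IC50 was fitted with a four-parameter logistic model.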

The target of assay [2] is T2, IKZF1 (Ikaros) (Homo sapiens, UniProt Q13422).
T2 construct: mScarlet (behind P2A) (C, cleaved yes); expressed in transfected cells
T2 sequence (Q96SW2 whole entry partner): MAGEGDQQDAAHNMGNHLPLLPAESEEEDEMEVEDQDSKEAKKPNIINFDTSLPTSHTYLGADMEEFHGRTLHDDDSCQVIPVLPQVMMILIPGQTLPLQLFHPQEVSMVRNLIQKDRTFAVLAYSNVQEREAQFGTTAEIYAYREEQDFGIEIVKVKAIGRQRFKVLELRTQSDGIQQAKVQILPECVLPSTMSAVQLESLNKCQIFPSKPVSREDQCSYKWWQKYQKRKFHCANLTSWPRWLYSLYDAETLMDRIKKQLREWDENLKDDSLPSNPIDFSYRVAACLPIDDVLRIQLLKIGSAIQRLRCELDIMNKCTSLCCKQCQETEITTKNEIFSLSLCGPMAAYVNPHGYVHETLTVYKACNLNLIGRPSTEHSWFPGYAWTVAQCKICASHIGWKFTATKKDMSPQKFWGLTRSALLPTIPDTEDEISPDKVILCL
T2 sequence (Q16531 whole entry partner): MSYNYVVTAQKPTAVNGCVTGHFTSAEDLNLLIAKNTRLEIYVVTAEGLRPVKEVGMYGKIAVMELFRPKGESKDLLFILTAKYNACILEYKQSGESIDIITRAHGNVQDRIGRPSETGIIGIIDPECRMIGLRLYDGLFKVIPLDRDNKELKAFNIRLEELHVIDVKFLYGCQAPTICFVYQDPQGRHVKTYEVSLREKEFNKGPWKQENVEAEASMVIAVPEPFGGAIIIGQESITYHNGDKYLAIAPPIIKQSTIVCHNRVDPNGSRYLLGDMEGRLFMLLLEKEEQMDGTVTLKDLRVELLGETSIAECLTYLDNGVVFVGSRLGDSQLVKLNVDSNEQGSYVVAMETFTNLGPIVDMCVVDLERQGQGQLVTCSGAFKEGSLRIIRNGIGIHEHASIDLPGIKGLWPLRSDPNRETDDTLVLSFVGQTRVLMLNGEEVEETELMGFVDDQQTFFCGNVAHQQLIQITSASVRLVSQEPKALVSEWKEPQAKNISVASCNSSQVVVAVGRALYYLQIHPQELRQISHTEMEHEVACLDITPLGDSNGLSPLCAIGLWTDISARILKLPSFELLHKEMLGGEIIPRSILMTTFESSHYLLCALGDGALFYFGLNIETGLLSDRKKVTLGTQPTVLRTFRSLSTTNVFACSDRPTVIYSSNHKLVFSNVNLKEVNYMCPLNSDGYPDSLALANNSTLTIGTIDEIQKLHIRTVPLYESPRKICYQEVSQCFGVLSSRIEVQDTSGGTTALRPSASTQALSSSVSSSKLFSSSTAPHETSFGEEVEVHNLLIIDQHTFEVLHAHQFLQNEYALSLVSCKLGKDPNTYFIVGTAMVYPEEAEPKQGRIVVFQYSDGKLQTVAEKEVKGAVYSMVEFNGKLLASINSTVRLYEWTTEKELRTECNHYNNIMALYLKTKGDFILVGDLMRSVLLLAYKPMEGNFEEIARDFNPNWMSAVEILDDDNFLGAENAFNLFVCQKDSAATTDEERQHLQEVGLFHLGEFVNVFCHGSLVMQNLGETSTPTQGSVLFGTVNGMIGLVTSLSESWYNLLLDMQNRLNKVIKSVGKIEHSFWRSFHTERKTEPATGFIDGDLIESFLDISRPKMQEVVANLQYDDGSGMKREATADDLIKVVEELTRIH
T2 sequence (Q13422 whole entry): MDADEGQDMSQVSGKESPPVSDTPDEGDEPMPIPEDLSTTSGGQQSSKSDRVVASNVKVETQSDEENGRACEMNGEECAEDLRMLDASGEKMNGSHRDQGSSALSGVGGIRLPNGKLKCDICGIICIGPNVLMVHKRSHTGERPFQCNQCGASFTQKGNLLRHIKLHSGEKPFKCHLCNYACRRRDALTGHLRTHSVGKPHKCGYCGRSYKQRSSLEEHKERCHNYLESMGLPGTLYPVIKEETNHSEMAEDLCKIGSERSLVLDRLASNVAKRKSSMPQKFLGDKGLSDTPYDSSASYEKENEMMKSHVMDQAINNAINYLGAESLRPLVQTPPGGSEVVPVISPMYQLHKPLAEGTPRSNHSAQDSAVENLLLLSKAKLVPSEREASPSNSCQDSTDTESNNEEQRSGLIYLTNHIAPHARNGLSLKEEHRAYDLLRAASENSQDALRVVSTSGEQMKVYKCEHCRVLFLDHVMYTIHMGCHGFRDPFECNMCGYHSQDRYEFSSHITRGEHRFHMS
As to the kind of experiment: IKZF1 reporter degradation assay (HEK 293T IKZF1-mNeonGreen reporter cell line). It counts as cell-based. The conditions noted are these: 24 hours incubation. From the text:
Polycistronic plasmids were constructed for the mammalian expression of fluorescent reporter fusions of human transcription factors IKZF1 (Ikaros), IKZF2 (Helios), and IKZF3 (Aiolos). The respective protein sequences had their C-terminal end joined to a GGGGS linker repeated three times followed by mNeonGreen, P2A sequence, and mScarlet. The DNA sequences of the open reading frames are as follows:
IKZF1, IKZF2, and IKZF3 constructs were cloned into the UCOE Hygromycin expression vectors (Millipore Sigma). Reporter constructs were transfected using cationic lipid reagents into adherent HEK 293T cells and stable integrants were selected by treatment with 200 μg/mL hygromycin B. Clonal populations were obtained from the population of stable integrants either by limiting dilution or fluorescence activated cell sorting.
The clonal stable cell lines were maintained under constant 200 μg/mL hygromycin B selection while being passaged for use in the degradation assays. […] The fluorescence intensity of the IKZF1/2/3-mNeonGreen (FITC channel) and mScarlet (PE channel) reporters were routinely analyzed by flow cytometry to confirm consistent expression levels between experiments.
The IKZF1/IKZF2/IKZF3 degradation assays were carried out by harvesting the HEK 293T reporter cell lines and resuspending the cells in media formulated for reduced background fluorescence (FluoroBrite; Thermo Fisher). The respective cell lines were seeded at a density of 4000 cells/well into black-walled 384-well optical grade assay tissue culture plates. The cells were incubated overnight at 37° C. to allow for attachment to the assay plate. Dilutions of the compounds were prepared in DMSO from 10 mM compound stocks. The assay plates were treated with appropriate concentrations of the compounds by dispensing the DMSO dilutions in quadruplicate wells with an upper limit of 0.5% final DMSO.
After 24 hours incubation with the compounds, the assay plates were imaged on an ImageXpress Pico microscopy system (cells maintained at 37° C. during imaging) to obtain the fluorescent readouts. The assay plates were imaged in the FITC and Tetramethylrhodamine (TRITC) channels to obtain the mNeonGreen fluorescence intensity (reporter degradation data) and mScarlet fluorescence intensity (for cell segmentation). 293T-IKZF1 and 293T-IKZF3 reporter cell lines were imaged with exposures of 500 milliseconds (ms) for both FITC and TRITC channels, while the 293T-IKZF2 reporter cell line was imaged with exposures of 1000 ms for FITC and 1250 ms for TRITC. The resulting data was analyzed with Cell Reporter Xpress software using the 2-channel cell scoring analysis with a “percent positive” readout. The TRITC channel was selected for the “nuclei” segmentation with a threshold of 20 while the FITC channel was selected for the “Marker 1” segmentation and a threshold of 100 for the IKZF1 and IKZF3 reporter lines. […] The minimum segmentation width was set to 6 micrometers and the maximum segmentation width was set to 15 micrometers for all cell lines. The DC50 calculations were determined by regression to best fit four-parameter logistic curves using GraphPad Prism.

Assay [3] deals with T3, IKZF2 (Helios) (Homo sapiens, UniProt Q9UKS7).
T3 construct: Leu-Asp junction (codons ctcgac before the linker); mScarlet (behind P2A) (C, cleaved yes); expressed in transfected cells
T3 sequence (Q9UKS7 whole entry): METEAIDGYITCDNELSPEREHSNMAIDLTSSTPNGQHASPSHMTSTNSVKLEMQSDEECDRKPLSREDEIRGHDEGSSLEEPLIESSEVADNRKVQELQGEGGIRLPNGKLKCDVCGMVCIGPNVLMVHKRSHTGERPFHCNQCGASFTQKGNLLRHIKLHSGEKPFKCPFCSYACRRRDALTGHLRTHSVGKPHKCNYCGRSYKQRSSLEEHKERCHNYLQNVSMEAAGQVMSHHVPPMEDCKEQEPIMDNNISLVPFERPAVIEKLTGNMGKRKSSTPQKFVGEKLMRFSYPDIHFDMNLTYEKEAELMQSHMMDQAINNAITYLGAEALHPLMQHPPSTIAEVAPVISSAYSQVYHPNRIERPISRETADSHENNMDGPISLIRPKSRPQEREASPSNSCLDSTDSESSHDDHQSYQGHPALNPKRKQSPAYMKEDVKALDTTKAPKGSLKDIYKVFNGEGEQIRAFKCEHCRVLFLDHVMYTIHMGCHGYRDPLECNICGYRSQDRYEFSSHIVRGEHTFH
T3 sequence (Q96SW2 whole entry, further chain): as the sequence (Q96SW2 whole entry partner) above
T3 sequence (Q16531 whole entry partner): as the sequence (Q16531 whole entry partner) above
The assay can be described thus: IKZF2 reporter degradation assay (HEK 293T IKZF2-mNeonGreen reporter cell line). It counts as cell-based. The conditions noted are these: 24 hours incubation. Summed up: (§1)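 Readout: percent of cells positive for the mNeonGreen-tagged IKZF reporter, imaged after 24 h of compound exposure at 37 °C in stable HEK 293T lines. The P2A-linked mScarlet defined the cells. DC50 values came from four-parameter logistic regression.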

The target of assay [4] is T4, IKZF3 (Aiolos) (Homo sapiens, UniProt Q9UKT9).
T4 construct: Leu-Asp junction (codons ctcgac before the linker); mScarlet (behind P2A) (C, cleaved yes); expressed in transfected cells
T4 sequence (Q96SW2 whole entry partner): as the sequence (Q96SW2 whole entry partner) above
T4 sequence (Q16531 whole entry partner): as the sequence (Q16531 whole entry partner) above
T4 sequence (Q9UKT9 whole entry): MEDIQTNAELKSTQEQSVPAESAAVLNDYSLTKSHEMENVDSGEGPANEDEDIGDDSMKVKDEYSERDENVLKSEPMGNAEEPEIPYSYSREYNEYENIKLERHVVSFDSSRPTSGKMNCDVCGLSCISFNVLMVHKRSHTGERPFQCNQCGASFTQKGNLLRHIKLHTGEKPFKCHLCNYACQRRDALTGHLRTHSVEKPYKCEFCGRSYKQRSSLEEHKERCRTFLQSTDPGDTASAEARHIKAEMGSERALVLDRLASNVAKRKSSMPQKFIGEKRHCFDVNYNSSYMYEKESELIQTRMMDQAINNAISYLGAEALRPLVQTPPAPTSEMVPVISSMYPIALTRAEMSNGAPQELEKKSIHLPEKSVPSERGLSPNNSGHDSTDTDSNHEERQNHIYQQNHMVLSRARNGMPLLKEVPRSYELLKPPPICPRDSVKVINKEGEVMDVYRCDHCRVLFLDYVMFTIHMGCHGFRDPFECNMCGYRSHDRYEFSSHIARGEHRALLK
As to the kind of experiment: IKZF3 reporter degradation assay (HEK 293T IKZF3-mNeonGreen reporter cell line). It counts as cell-based. The settings on record: 24 hours incubation. The procedure, abridged:
as §1

The target of assay [5] is T5, IKZF2 (Helios) (Homo sapiens, UniProt Q96SW2+Q9UKS7).
T5 construct: Leu-Asp junction (codons ctcgac before the linker); mScarlet (behind P2A) (C, cleaved yes); expressed in transfected cells
T5 sequence (Q9UKS7 whole entry): as the sequence (Q9UKS7 whole entry) above
T5 sequence (Q96SW2 whole entry): as the sequence (Q96SW2 whole entry partner) above
T5 sequence (Q16531 whole entry partner): as the sequence (Q16531 whole entry partner) above
As to the kind of experiment: IKZF2 reporter degradation assay (HEK 293T IKZF2-mNeonGreen reporter cell line). Type of assay: cell-based. The conditions noted are these: HEK-293T, 24 h, 1 μM compound, HEK 293T IKZF2 reporter cells, 24 hours incubation. Summed up:
as §1

Setting [6] is: HEK 293T IKZF1-mNeonGreen reporter.
Where [7] appears, read: HEK 293T IKZF2-mNeonGreen reporter.
Setting [8] is: HEK 293T IKZF3-mNeonGreen reporter.

T1 sequence (Q96SW2 whole entry): as the sequence (Q96SW2 whole entry partner) above
T1 sequence (Q16531 whole entry partner): as the sequence (Q16531 whole entry partner) above

With `O=C1CCC(N2Cc3cc(O[C@H]4CCCC[C@@H]4N4CC(c5cc(Cl)ccn5)C4)ccc3C2=O)C(=O)N1` (mixture of isomers) [Compound 166-B, Rac-3-(5-(((trans)-2-(3-(4-chloropyridin-2-yl)azetidin-1-yl)cyclohexyl)oxy)-1-oxoisoindolin-2-yl)piperidine-2,6-dione], the EC50 in assay [1] came out at 0.031 µM. The DC50 in assay [2] (setting [6]), in assay [3] (setting [7]) and in assay [4] (setting [8]) was > 30 µM each time.

As for `O=C1CCC(N2Cc3cc(O[C@H]4CCCC[C@@H]4N4CC(c5cncc(Cl)c5)C4)ccc3C2=O)C(=O)N1` (mixture of isomers) [Compound 168-B, Rac-3-(5-(((trans)-2-(3-(5-chloropyridin-3-yl)azetidin-1-yl)cyclohexyl)oxy)-1-oxoisoindolin-2-yl)piperidine-2,6-dione], in assay [1], the EC50 is 0.048 µM. Further, the DC50 in assay [2] (setting [6]), in assay [3] (setting [7]) and in assay [4] (setting [8]) was > 30 µM throughout.

With `O=C1NC(=O)C2(N3Cc4cc(O[C@@H]5CCCC[C@@H]5N5CC(c6ncc(Cl)cn6)C5)ccc4C3=O)CC1C2` (racemic) [Compound 171-B, Rac-1-(5-(((cis)-2-(3-(5-chloropyrimidin-2-yl)azetidin-1-yl)cyclohexyl)oxy)-1-oxoisoindolin-2-yl)-3-azabicyclo[3.1.1]heptane-2,4-dione], in assay [1], the EC50 was > 10 µM. The DC50 was ≥ 30 µM in assay [2] (setting [6]), > 30 µM in assay [3] (setting [7]) and > 30 µM in assay [4] (setting [8]).

Turning to `O=C1NC(=O)C2(N3Cc4cc(O[C@H]5CCCC[C@@H]5N5CC(c6ncc(Cl)cn6)C5)ccc4C3=O)CC1C2` (racemic) [Compound 172-B, Rac-1-(5-(((trans)-2-(3-(5-chloropyrimidin-2-yl)azetidin-1-yl)cyclohexyl)oxy)-1-oxoisoindolin-2-yl)-3-azabicyclo[3.1.1]heptane-2,4-dione], the EC50 in assay [1] is > 10 µM. Further, the DC50 in assay [2] (setting [6]), in assay [3] (setting [7]) and in assay [4] (setting [8]) was > 30 µM throughout.

On to `Cc1cnc(C2CN([C@H]3CCCC[C@@H]3Oc3ccc4c(c3)CN(C3CCC(=O)NC3=O)C4=O)C2)o1` (mixture of isomers) [Compound 175-B, Rac-3-(5-(((trans)-2-(3-(5-methyloxazol-2-yl)azetidin-1-yl)cyclohexyl)oxy)-1-oxoisoindolin-2-yl)piperidine-2,6-dione], for which the EC50 in assay [1] was 0.022 µM. Besides, the DC50 in assay [2] (setting [6]), in assay [3] (setting [7]) and in assay [4] (setting [8]) was > 30 µM throughout.

In the case of `O=C1CCC(N2Cc3cc(O[C@H]4CCCC[C@@H]4N4CC(c5ccc(C(F)(F)F)nc5)C4)ccc3C2=O)C(=O)N1` (mixture of isomers) [Compound 191-B, Rac-3-(1-oxo-5-(((trans)-2-(3-(6-(trifluoromethyl)pyridin-3-yl)azetidin-1-yl)cyclohexyl)oxy)isoindolin-2-yl)piperidine-2,6-dione], in assay [1], the EC50 was found to be 0.031 µM. The DC50 in assay [2] (setting [6]), in assay [3] (setting [7]) and in assay [4] (setting [8]) was > 30 µM each time.

In the case of `O=C1CCC(N2Cc3cc(O[C@H]4CCCC4N4CC(c5ccnc6ccccc56)C4)ccc3C2=O)C(=O)N1` (mixture of isomers) [Compound 195-B, Rac-3-(1-oxo-5-(((trans)-2-(3-(quinolin-4-yl)azetidin-1-yl)cyclopentyl)oxy)isoindolin-2-yl)piperidine-2,6-dione], the EC50 in assay [1] stood at 0.024 µM. Also, the DC50 in assay [2] (setting [6]), in assay [3] (setting [7]) and in assay [4] (setting [8]) was > 30 µM throughout.

With `O=C1CCC(N2Cc3cc(OC4CCC[C@@H]4N4CC(c5cncnc5)C4)ccc3C2=O)C(=O)N1` (mixture of isomers) [Compound 197-B, Rac-3-(1-oxo-5-(((trans)-2-(3-(pyrimidin-5-yl)azetidin-1-yl)cyclopentyl)oxy)isoindolin-2-yl)piperidine-2,6-dione], the EC50 in assay [1] turned out to be 0.138 µM. In addition, the 50% degradation concentration (DC50) in assay [2] (setting [6]), in assay [3] (setting [7]) and in assay [4] (setting [8]) was > 30 µM in each case.

`COc1ccc(C2CN([C@H]3CCCC3Oc3ccc4c(c3)CN(C3CCC(=O)NC3=O)C4=O)C2)cn1` (mixture of isomers) [Compound 202-B, Rac-3-(5-(((trans)-2-(3-(6-methoxypyridin-3-yl)azetidin-1-yl)cyclopentyl)oxy)-1-oxoisoindolin-2-yl)piperidine-2,6-dione]: the EC50 in assay [1] was 0.029 µM. Moreover, the DC50 in assay [2] (setting [6]), in assay [3] (setting [7]) and in assay [4] (setting [8]) was > 30 µM throughout.

For `O=C1CCC(N2Cc3cc(OC4CCC[C@@H]4N4CC(c5ccncc5)C4)ccc3C2=O)C(=O)N1` (mixture of isomers) [Compound 206-B, Rac-3-(1-oxo-5-(((trans)-2-(3-(pyridin-4-yl)azetidin-1-yl)cyclopentyl)oxy)isoindolin-2-yl)piperidine-2,6-dione], the EC50 in assay [1] was 0.071 µM. The DC50 in assay [2] (setting [6]), in assay [3] (setting [7]) and in assay [4] (setting [8]) was > 30 µM each time.

In the case of `O=C1CCC(N2Cc3cc(OC4CCC[C@@H]4N4CC(c5cccnc5)C4)ccc3C2=O)C(=O)N1` (mixture of isomers) [Compound 208-B, Rac-3-(1-oxo-5-(((trans)-2-(3-(pyridin-3-yl)azetidin-1-yl)cyclopentyl)oxy)isoindolin-2-yl)piperidine-2,6-dione], the EC50 in assay [1] stood at 0.076 µM. In addition, the DC50 in assay [2] (setting [6]), in assay [3] (setting [7]) and in assay [4] (setting [8]) was > 30 µM each time.

Consider `O=C1CCC(N2Cc3cc(OC4CCC[C@@H]4N4CC(c5ccccn5)C4)ccc3C2=O)C(=O)N1` (mixture of isomers) [Compound 210-B, Rac-3-(1-oxo-5-(((trans)-2-(3-(pyridin-2-yl)azetidin-1-yl)cyclopentyl)oxy)isoindolin-2-yl)piperidine-2,6-dione], for which, in assay [1], the EC50 was 0.122 µM. Besides, the DC50 in assay [2] (setting [6]), in assay [3] (setting [7]) and in assay [4] (setting [8]) was > 30 µM in each case.

`O=C1CCC(N2Cc3cc(O[C@H]4CCCC[C@@H]4N4CC(C5CCOCC5)C4)ccc3C2=O)C(=O)N1` (stereo partly drawn) [Compound 1-A, 3-(1-oxo-5-(((1S,2S)-2-(3-(tetrahydro-2H-pyran-4-yl)azetidin-1-yl)cyclohexyl)oxy)isoindolin-2-yl)piperidine-2,6-dione]: the DC50 in assay [2] (HEK 293T IKZF1 reporter cells) was > 30 µM; in assay [3] (HEK 293T IKZF2 reporter cells), 0.00889 µM; in assay [4] (HEK 293T IKZF3 reporter cells), > 30 µM. In assay [5], this compound had an inhibition at 1 µM of 83.4%.

Take `O=C1CCC(N2Cc3cc(O[C@H]4CCCC[C@@H]4N4CC(n5ccnc5)C4)ccc3C2=O)C(=O)N1` (stereo partly drawn) [Compound 176-B, 3-(5-(((1S,2S)-2-(3-(1H-imidazol-1-yl)azetidin-1-yl)cyclohexyl)oxy)-1-oxoisoindolin-2-yl)piperidine-2,6-dione]: in assay [1], the EC50 was 0.899 µM. In addition, the DC50 was > 30 µM in assay [2] (setting [6]), 2.1 µM in assay [3] (setting [7]) and > 30 µM in assay [4] (setting [8]).

`O=C1CCC(N2Cc3cc(OC4CCCC4N4CC(c5ncc(Cl)cn5)C4)ccc3C2=O)C(=O)N1` (stereo not drawn) [Compound 200-B, 3-(5-((2-(3-(5-chloropyrimidin-2-yl)azetidin-1-yl)cyclopentyl)oxy)-1-oxoisoindolin-2-yl)piperidine-2,6-dione]: the EC50 in assay [1] was 0.02 µM. Moreover, the DC50 in assay [2] (setting [6]), in assay [3] (setting [7]) and in assay [4] (setting [8]) was > 30 µM each time.
